Test results taken from US20100331348A1, “TROPANE DERIVATIVES USEFUL AS PESTICIDES” (SYNGENTA CROP PROTECTION, INC., priority 2007, published 2010).
Like-named read-outs stand apart in the source and are kept apart here.

Experiments:
Spodoptera littoralis = Spodoptera littoralis (Egyptian cotton leafworm) cotton leaf disc test; conditions: in Gossypium hirsutum, foliar, 72 h, read-out: control of Spodoptera littoralis
Aedes aegypti = Aedes aegypti (Yellow fever mosquito) larvae test; assay type: in vivo; conditions: 48 h
Tetranychus urticae = conditions: foliar, 192 h, read-out: control of Tetranychus urticae
Myzus persicae = Myzus persicae (Green peach aphid) sunflower leaf disc test; conditions: foliar, 144 h, read-out: control of Myzus persicae
[1] = tested on: Puccinia recondita f.sp. tritici; experiment: Puccinia recondita f.sp. tritici (wheat brown rust) leaf disk assay; assay type: in vivo; conditions: foliar, 216 h, preventive, nine days after inoculation, read-out: control of fungal infection, Puccinia recondita f.sp. tritici
Septoria tritici = Septoria tritici (leaf blotch) growth inhibition in nutrient broth; assay type: cell-based; conditions: Zymoseptoria tritici, 72 hrs, read-out: control of fungal infection, Septoria tritici
Pyricularia oryzae = experiment: whole plant or invertebrate; assay type: in vivo; conditions: foliar, 96 h
Heliothis virescens = Heliothis virescens (Tobacco budworm) egg test on artificial diet; conditions: 96 h, read-out: control of Heliothis virescens
Plasmopara viticola = Plasmopara viticola (downy mildew of grapevine) leaf disk assay; assay type: in vivo; conditions: foliar, 168 h, preventive, seven days after inoculation, read-out: control of fungal infection, Plasmopara viticola
Plutella xylostella = Plutella xylostella (Diamond back moth) artificial diet test; conditions: 120 h, read-out: control of Plutella xylostella
[2] = tested on: Erysiphe graminis f.sp. tritici; experiment: Erysiphe graminis f.sp. tritici (wheat powdery mildew) leaf disk assay; assay type: in vivo; conditions: Blumeria graminis, foliar, 96 h, preventive, four days after inoculation, read-out: control of fungal infection, Erysiphe graminis fsp. tritici
Phytophthora infestans = experiment: whole plant or invertebrate; assay type: in vivo; conditions: foliar, 96 h, read-out: control of fungal infection, Phytophthora infestans
Pythium ultimum = Pythium ultimum (Damping off) growth inhibition in potato dextrose broth; assay type: cell-based; conditions: Globisporangium ultimum, 48 hours, read-out: control of fungal infection, Pythium ultimum
[3] = read-out: control of fungal infection, Pyricularia oryzae (at least 80% list)
[4] = read-out: control of fungal infection, Pyricularia oryzae (at least 60% list)

Structure (SMILES): CCc1ncnc(N2C3CCC2CC(=CCOc2ccc(C)nc2)C3)c1Cl [Example 3.14]
- pest or weed control at 200 ppm (Spodoptera littoralis): ≥ 80%
- pest or weed control at 2 ppm (Aedes aegypti): ≥ 80%
- pest or weed control at 200 ppm (Tetranychus urticae): ≥ 80%
- pest or weed control at 200 ppm (Myzus persicae): ≥ 80%
- pest or weed control at 200 ppm [1]: ≥ 80%
- inhibition of growth at 200 ppm (Septoria tritici): ≥ 60%
- pest or weed control at 200 ppm (Pyricularia oryzae; [3]): ≥ 80%
- pest or weed control at 200 ppm (Heliothis virescens): ≥ 80%

Structure (SMILES): Cc1ccc(C=C2CC3CCC(C2)N3c2ncnc3sccc23)cc1 [Example 3.32]
- pest or weed control at 200 ppm (Spodoptera littoralis): ≥ 80%
- pest or weed control at 200 ppm (Plasmopara viticola): ≥ 80%
- pest or weed control at 2 ppm (Aedes aegypti): ≥ 80%
- pest or weed control at 200 ppm (Tetranychus urticae): ≥ 80%
- pest or weed control at 200 ppm (Myzus persicae): ≥ 80%
- pest or weed control at 200 ppm [1]: ≥ 80%
- pest or weed control at 200 ppm (Pyricularia oryzae; [4]): ≥ 60%
- pest or weed control at 200 ppm (Pyricularia oryzae; [3]): ≥ 80%
- pest or weed control at 200 ppm (Plutella xylostella): ≥ 80%
- pest or weed control at 200 ppm (Heliothis virescens): ≥ 80%

Structure (SMILES): CCc1ncnc(N2C3CCC2CC(=NOCc2ccc(F)cc2)C3)c1Cl [Example 5.30]
- pest or weed control at 200 ppm (Spodoptera littoralis): ≥ 80%
- pest or weed control at 2 ppm (Aedes aegypti): ≥ 80%
- pest or weed control at 200 ppm (Myzus persicae): ≥ 80%
- pest or weed control at 200 ppm [1]: ≥ 80%
- pest or weed control at 200 ppm (Pyricularia oryzae; [4]): ≥ 60%
- pest or weed control at 200 ppm [2]: ≥ 80%
- pest or weed control at 200 ppm (Plutella xylostella): ≥ 80%
- pest or weed control at 200 ppm (Heliothis virescens): ≥ 80%

Structure (SMILES): Fc1cc(Br)ccc1CON=C1CC2CCC(C1)N2c1ncnc2sccc12 [Example 5.232]
- pest or weed control at 200 ppm (Spodoptera littoralis): ≥ 80%
- pest or weed control at 200 ppm (Phytophthora infestans): ≥ 80%
- pest or weed control at 2 ppm (Aedes aegypti): ≥ 80%
- pest or weed control at 200 ppm (Myzus persicae): ≥ 80%
- pest or weed control at 200 ppm [1]: ≥ 80%
- pest or weed control at 200 ppm (Pyricularia oryzae; [4]): ≥ 60%
- pest or weed control at 200 ppm [2]: ≥ 80%
- pest or weed control at 200 ppm (Plutella xylostella): ≥ 80%
- inhibition of growth at 200 ppm (Pythium ultimum): ≥ 60%
